In ChEMBL document CHEMBL1201862, “PubChem BioAssay data set” (2004):
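Five concentrations, 48 hours, 96-well plates. GI50 marks 50% less growth.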 Calls of active or inactive are those of the source. Rule as the data show it: active = GI50 up to about 1.1 µM and inactive = higher.

Columns and labels:
Experiment in all cases: NCI anticancer screen, dose series, 48 h
SK-MEL-5 = system: SK-MEL-5
RXF 393 = system: RXF 393
MDA-MB-231 = system: MDA-MB-231
786-0 = system: 786-0
Malme-3M = system: Malme-3M
HOP-62 = system: HOP-62
LOX IMVI = system: LOX IMVI
Hs-578T = system: Hs-578T
U-251 = system: U-251
NCI-H226 = system: NCI-H226
OVCAR-5 = system: OVCAR-5
KM12 = system: KM12
SR = system: SR
SNB-75 = system: SNB-75
A549 = system: A549
NCI-H460 = system: NCI-H460
A498 = system: A498
MCF7 = system: MCF7
SN12C = system: SN12C
UACC-257 = system: UACC-257

SMILES | GI50 (SK-MEL-5) | GI50 (RXF 393) | GI50 (MDA-MB-231) | GI50 (786-0) | GI50 (Malme-3M) | GI50 (HOP-62) | GI50 (LOX IMVI) | GI50 (Hs-578T) | GI50 (U-251) | GI50 (NCI-H226) | GI50 (OVCAR-5) | GI50 (KM12) | GI50 (SR) | GI50 (SNB-75) | GI50 (A549) | GI50 (NCI-H460) | GI50 (A498) | GI50 (MCF7) | GI50 (SN12C) | GI50 (UACC-257)
CC(C)CCC[C@@H](C)[C@H]1CC[C@H]2[C@@H]3CC[C@H]4C[C@@H](CCC=C(c5cc(Cl)c(O)c(C(=O)O)c5)c5cc(Cl)c(O)c(C(=O)O)c5)CC[C@]4(C)[C@H]3CC[C@]12C | > 100 µM (inactive) | > 100 µM (inactive) | > 100 µM (inactive) | > 100 µM (inactive) | > 100 µM (inactive) | > 100 µM (inactive) | > 100 µM (inactive) | > 100 µM (inactive) | > 100 µM (inactive) | > 100 µM (inactive) | > 100 µM (inactive) | > 100 µM (inactive) | > 100 µM (inactive) | > 100 µM (inactive) | > 100 µM (inactive) | > 100 µM (inactive) | > 100 µM (inactive) | > 100 µM (inactive) | > 100 µM (inactive) | > 100 µM (inactive)
C=C(CC)C(=O)c1ccc(OCC(=O)O)c(Cl)c1Cl [ETHACRYNIC ACID] | 25.8 µM (inactive) | 18.2 µM (inactive) | 19.6 µM (inactive) | 6.93 µM (inactive) | 16.9 µM (inactive) | 20.5 µM (inactive) | 14.7 µM (inactive) | 20.5 µM (inactive) | 16 µM (inactive) | 15.5 µM (inactive) | 29.8 µM (inactive) | 5.5 µM (inactive) | 31.6 µM (inactive) | 21.8 µM (inactive) | > 91.8 µM (inactive) | 44.3 µM (inactive) | 35.8 µM (inactive) | 6.05 µM (inactive) | 20 µM (inactive) | 18.9 µM (inactive)
COc1cc([C@H]2Oc3c(OC)cc(CCCO)cc3[C@@H]2CO)ccc1O [DIHYDRODEHYDRODICONIFERY ALCOHOL] | 39 µM (inactive) | > 100 µM (inactive) | 27.2 µM (inactive) | > 100 µM (inactive) | > 100 µM (inactive) | > 100 µM (inactive) | > 100 µM (inactive) | 47.2 µM (inactive) | > 100 µM (inactive) | > 100 µM (inactive) | > 100 µM (inactive) | > 100 µM (inactive) | > 100 µM (inactive) | 44.9 µM (inactive) | > 100 µM (inactive) | > 100 µM (inactive) | 50.6 µM (inactive) | 37.2 µM (inactive) | > 100 µM (inactive) | 43.4 µM (inactive)
C[C@H]1CC[C@H](NC(=O)N(CCCl)N=O)CC1 | 40.4 µM (inactive) | 36 µM (inactive) | 48 µM (inactive) | 31.6 µM (inactive) | 47.9 µM (inactive) | 48.3 µM (inactive) | 13 µM (inactive) | 57.4 µM (inactive) | 26.7 µM (inactive) | 59 µM (inactive) | 55.7 µM (inactive) | 59.3 µM (inactive) | 10.6 µM (inactive) | 31.1 µM (inactive) | 51.3 µM (inactive) | 39.1 µM (inactive) | 53 µM (inactive) | 50.4 µM (inactive) | 40.4 µM (inactive) | 46.3 µM (inactive)
N#Cc1nc(Sc2cnsn2)c(Sc2cnsn2)nc1C#N | 14.9 µM (inactive) | 5.94 µM (inactive) | 23.9 µM (inactive) | 6.78 µM (inactive) | 4.81 µM (inactive) | 18.7 µM (inactive) | 17.9 µM (inactive) | 19.1 µM (inactive) | 29.4 µM (inactive) | 19.9 µM (inactive) | 18.9 µM (inactive) | 20.7 µM (inactive) | 8.91 µM (inactive) | 22.9 µM (inactive) | 28.6 µM (inactive) | 24.6 µM (inactive) | 21.8 µM (inactive) | 21.9 µM (inactive) | 21.4 µM (inactive) | 13.6 µM (inactive)
CC(=O)OCC(Br)C1(C)CCC(C(C)(C)Br)O1 (stereo unspecified) | 35.9 µM (inactive) | 51.1 µM (inactive) | > 100 µM (inactive) | > 100 µM (inactive) | 83.6 µM (inactive) | > 100 µM (inactive) | 23.1 µM (inactive) | 17.9 µM (inactive) | 73.5 µM (inactive) | 32.8 µM (inactive) | > 100 µM (inactive) | 39.8 µM (inactive) | 77.1 µM (inactive) | 58.2 µM (inactive) | 63.8 µM (inactive) | 57.9 µM (inactive) | > 100 µM (inactive) | 56.4 µM (inactive) | 94.2 µM (inactive) | 12.1 µM (inactive)
N#CC1=C(N2CCOCC2)CCC1 | > 100 µM (inactive) | > 100 µM (inactive) | > 100 µM (inactive) | > 100 µM (inactive) | > 100 µM (inactive) | > 100 µM (inactive) | > 100 µM (inactive) | > 100 µM (inactive) | > 100 µM (inactive) | > 100 µM (inactive) | > 100 µM (inactive) | > 100 µM (inactive) | > 100 µM (inactive) | > 100 µM (inactive) | > 100 µM (inactive) | – | > 100 µM (inactive) | > 100 µM (inactive) | > 100 µM (inactive) | > 100 µM (inactive)
OCCCc1ccc2c(c1)[C@H](CO)[C@@H](c1ccc(O)cc1)O2 | 18.6 µM (inactive) | > 100 µM (inactive) | > 100 µM (inactive) | > 100 µM (inactive) | 13.8 µM (inactive) | > 100 µM (inactive) | > 100 µM (inactive) | 19.5 µM (inactive) | > 100 µM (inactive) | > 100 µM (inactive) | > 100 µM (inactive) | 82.4 µM (inactive) | 33.6 µM (inactive) | > 100 µM (inactive) | > 100 µM (inactive) | > 100 µM (inactive) | > 100 µM (inactive) | > 100 µM (inactive) | > 100 µM (inactive) | 46 µM (inactive)
CC(C)c1ccc(O)c(=O)c(O)c1.CC(C)c1ccc(O)c(=O)cc1.CC(C)c1cccc(=O)c(O)c1.CC(C)c1ccccc(=O)c1O | 1.22 µM (inactive) | 0.432 µM (active) | 1.79 µM (inactive) | 0.719 µM (active) | 1.43 µM (inactive) | 1.24 µM (inactive) | 0.76 µM (active) | 4.46 µM (inactive) | 0.491 µM (active) | 1.76 µM (inactive) | 3.11 µM (inactive) | 2.87 µM (inactive) | 0.262 µM (active) | 2.02 µM (inactive) | 1.07 µM (active) | 0.191 µM (active) | 2.06 µM (inactive) | 0.935 µM (active) | 0.998 µM (active) | 0.322 µM (active)
O=C(O)c1c2c(cc3c1CC1(Cc4ccccc4C1=O)C3)CCC2 (stereo unspecified) | 19.6 µM (inactive) | 25.8 µM (inactive) | 34.6 µM (inactive) | 47.5 µM (inactive) | 16.5 µM (inactive) | 64.7 µM (inactive) | 23.8 µM (inactive) | 34 µM (inactive) | 29 µM (inactive) | 24.3 µM (inactive) | 65.5 µM (inactive) | 14.4 µM (inactive) | 2.93 µM (inactive) | 26.5 µM (inactive) | 11.1 µM (inactive) | 4.62 µM (inactive) | 33 µM (inactive) | 26.2 µM (inactive) | 46.5 µM (inactive) | 50 µM (inactive)
Cc1ccc2[nH]c3c(c2c1)C1CCC(C(C)(C)C)CC1C1C(=O)N(c2ccc4c(c2)OCO4)C(=O)C31 (stereo unspecified) | 8.15 µM (inactive) | 2.26 µM (inactive) | 2.29 µM (inactive) | 1.63 µM (inactive) | 2.23 µM (inactive) | 1.91 µM (inactive) | 2.4 µM (inactive) | 1.55 µM (inactive) | 2.1 µM (inactive) | 2.84 µM (inactive) | 3.61 µM (inactive) | 5.25 µM (inactive) | 1.91 µM (inactive) | – | 2.31 µM (inactive) | 1.78 µM (inactive) | 1.83 µM (inactive) | 3.24 µM (inactive) | 2.24 µM (inactive) | 9.68 µM (inactive)
COC12OC3CC4(C)C(=CC3OC(OC(C)C1O)C2O)CCC1C4CCC2(C)C(c3ccc(=O)oc3)CCC12O (stereo unspecified) | < 0.001 µM (active) | 0.00234 µM (active) | 0.00281 µM (active) | 0.00134 µM (active) | 0.00168 µM (active) | 0.00137 µM (active) | 0.00137 µM (active) | < 0.001 µM (active) | 0.00142 µM (active) | 0.00246 µM (active) | 0.00132 µM (active) | 0.00247 µM (active) | 0.0014 µM (active) | 0.00202 µM (active) | 0.00119 µM (active) | 0.0014 µM (active) | 0.00309 µM (active) | 0.00178 µM (active) | < 0.001 µM (active) | 0.00283 µM (active)
COCn1cc(C2=C(C)C(=O)C(C)=C(C)C2=O)cn1 | 38.1 µM (inactive) | > 100 µM (inactive) | 18.6 µM (inactive) | 18 µM (inactive) | 99.5 µM (inactive) | > 100 µM (inactive) | > 10 µM (inactive) | > 100 µM (inactive) | – | > 100 µM (inactive) | > 100 µM (inactive) | > 100 µM (inactive) | 39.4 µM (inactive) | 11.4 µM (inactive) | > 100 µM (inactive) | > 100 µM (inactive) | > 100 µM (inactive) | > 100 µM (inactive) | > 100 µM (inactive) | 85.5 µM (inactive)
C=CCOC1(CC=C)C(=O)OC2C(O)COC21O (stereo unspecified) | > 100 µM (inactive) | > 100 µM (inactive) | > 100 µM (inactive) | > 100 µM (inactive) | > 100 µM (inactive) | > 100 µM (inactive) | > 100 µM (inactive) | > 100 µM (inactive) | > 100 µM (inactive) | > 100 µM (inactive) | > 100 µM (inactive) | > 100 µM (inactive) | > 100 µM (inactive) | – | > 100 µM (inactive) | > 100 µM (inactive) | > 100 µM (inactive) | > 100 µM (inactive) | > 100 µM (inactive) | > 100 µM (inactive)
